The test concerns the target T1, serotonin transporter (SERT) (Homo sapiens, UniProt P31645).
T1 construct: gene SLC6A4
The experiment in a line: cell-based.

Structures are written as SMILES. Structures can show the parent of a compound that is named as a salt.

T1 sequence (P31645 whole entry): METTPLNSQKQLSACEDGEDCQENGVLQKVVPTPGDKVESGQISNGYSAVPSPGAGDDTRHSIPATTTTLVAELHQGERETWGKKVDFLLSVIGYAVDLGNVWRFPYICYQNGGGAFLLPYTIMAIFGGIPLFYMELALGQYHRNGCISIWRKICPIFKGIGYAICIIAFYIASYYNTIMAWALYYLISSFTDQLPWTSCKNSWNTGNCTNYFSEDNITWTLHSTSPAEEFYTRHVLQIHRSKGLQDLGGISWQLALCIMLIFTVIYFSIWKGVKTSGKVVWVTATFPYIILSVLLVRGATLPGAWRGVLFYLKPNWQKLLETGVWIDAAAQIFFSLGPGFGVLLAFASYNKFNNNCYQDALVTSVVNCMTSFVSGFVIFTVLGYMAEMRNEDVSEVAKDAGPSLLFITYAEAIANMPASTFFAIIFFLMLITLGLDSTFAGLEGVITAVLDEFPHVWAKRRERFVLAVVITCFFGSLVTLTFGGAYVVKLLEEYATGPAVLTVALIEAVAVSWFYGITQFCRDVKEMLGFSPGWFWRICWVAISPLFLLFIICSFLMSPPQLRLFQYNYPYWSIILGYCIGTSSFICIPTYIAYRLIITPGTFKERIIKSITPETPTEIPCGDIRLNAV

Consider `Clc1ccc2sc(C3CCNCC3)nc2c1` [compound 1, 5-chloro-2-(piperidin-4-yl)-1,3-benzothiazole hydrochloride], for which it took 6.24 nM to reach half-maximal inhibition (IC50). This lies in the single-digit nanomolar range.

Source of the values: article PMC7803991, “Prediction of pharmacological activities from chemical structures with graph convolutional neural networks” (Scientific Reports, 2021).
